Like-named read-outs stand apart in the source and are kept apart here.
Tests used:
[1] = Plasma pharmacokinetics of bimiralisib, non-compartmental analysis (LC-MS); type: in vivo, human; conditions: for Cmax / Tmax / AUC(0-t): human, plasma, oral; for Cmax: read-out: Cmax Mean (%CV)
Description: Blood samples were collected to enable full PK profiling of bimiralisib. The PK samples were taken pre-dose and at 0.5, 1, 2, 4, 6, 8, and 24 h post-dosing in the three schedules, with additional timepoints depending on the schedule (48 h in the continuous schedule, 12, 16, and 48 h in intermittent schedule A and 12, 16, and 72 h in intermittent schedule B). PK sampling was repeated on cycle 1 Day 8 (continuous schedule: pre-dose and 1 h post-dose; intermittent schedules A and B: pre-dose and 0.5, 1, 2, 4, 6, 8, and 24 h post-dose), on cycle 1 Day 15 (continuous schedule: pre-dose and 0.5, 1, 2, 4, 6 and 8 h post-dose; intermittent schedules A and B: pre-dose and 4 h post-dose), and on cycle 2 Day 1 (continuous dosing: pre-dose and 1 h post-dose). Samples were sent to a central laboratory for analysis using liquid-chromatography mass spectrometry. The pharmacokinetics of bimiralisib were determined by non-compartmental analysis. Area under the concentration vs. time curve (AUC) was calculated using the linear up log down trapezoidal method. Accumulation was calculated as the ratio of cycle 1 on Day 15 AUC0–8h versus cycle 1 on Day -3 AUC0–8h.

advanced solid tumors = assay: Efficacy: objective tumor response per RECIST 1.1; type: in vivo, human
Description: Efficacy of treatment was determined by measuring reported lesions at baseline and after every 2 cycles.

[2] = PR patient, head and neck squamous cancer, NOTCH1T1997M, intermittent schedule A 200 mg

Nc1cc(C(F)(F)F)c(-c2nc(N3CCOCC3)nc(N3CCOCC3)n2)cn1 [bimiralisib, 5-(4,6-Dimorpholino-1,3,5-triazin-2-yl)-4-(trifluoromethyl)pyridin-2-amine]
Cmax ([1]; 140 mg, Intermittent Dose Schedule A, 140 mg, Day -3, 6 patients): 0.709 µg/mL | Tmax ([1]; 140 mg, Intermittent Dose Schedule A, 140 mg, Day -3, 6 patients, read-out: Tmax Median, (Range)): 1 h | AUC(0-t) ([1]; 140 mg, Intermittent Dose Schedule B, 140 mg, Day 1, 3 patients, read-out: AUC0–8 Geometric Mean (%CV)): 4.15 µg·h/mL | AUC(0-t) ([1]; 140 mg, Intermittent Dose Schedule B, 140 mg, Day 1, 3 patients, read-out: AUC0–24 Geometric Mean (%CV)): 9.74 µg·h/mL | Cmax ([1]; 140 mg, Intermittent Dose Schedule B, 140 mg, Day 1, 3 patients): 1.01 µg/mL | Tmax ([1]; 140 mg, Intermittent Dose Schedule B, 140 mg, Day 1, 3 patients, read-out: Tmax Median, (Range)): 1 h | AUC(0-t) ([1]; 140 mg, Intermittent Dose Schedule B, 140 mg, Day 8, 3 patients, read-out: AUC0–8 Geometric Mean (%CV)): 5.16 µg·h/mL | Cmax ([1]; 140 mg, Intermittent Dose Schedule B, 140 mg, Day 8, 3 patients): 1.56 µg/mL | Tmax ([1]; 140 mg, Intermittent Dose Schedule B, 140 mg, Day 8, 3 patients, read-out: Tmax Median, (Range)): 1 h | AUC(0-t) ([1]; 140 mg, Intermittent Dose Schedule B, 140 mg, Day 8, n = 2, read-out: AUC0–24 Geometric Mean (%CV)): 12.6 µg·h/mL | AUC(0-t) ([1]; 160 mg, Intermittent Dose Schedule A, 160 mg, Day 8, 3 patients, read-out: AUC0–8 Geometric Mean (%CV)): 4.08 µg·h/mL | AUC(0-t) ([1]; 160 mg, Intermittent Dose Schedule A, 160 mg, Day 8, 3 patients, read-out: AUC0–24 Geometric Mean (%CV)): 11.1 µg·h/mL | Cmax ([1]; 160 mg, Intermittent Dose Schedule A, 160 mg, Day 8, 3 patients): 0.857 µg/mL | Tmax ([1]; 160 mg, Intermittent Dose Schedule A, 160 mg, Day 8, 3 patients, read-out: Tmax Median, (Range)): 2 h | AUC(0-t) ([1]; 160 mg, Intermittent Dose Schedule A, 160 mg, Day -3, 3 patients, read-out: AUC0–8 Geometric Mean (%CV)): 2.48 µg·h/mL | AUC(0-t) ([1]; 160 mg, Intermittent Dose Schedule A, 160 mg, Day -3, 3 patients, read-out: AUC0–24 Geometric Mean (%CV)): 5.83 µg·h/mL | Cmax ([1]; 160 mg, Intermittent Dose Schedule A, 160 mg, Day -3, 3 patients): 0.539 µg/mL | Tmax ([1]; 160 mg, Intermittent Dose Schedule A, 160 mg, Day -3, 3 patients, read-out: Tmax Median, (Range)): 1 h | AUC(0-t) ([1]; 160 mg, Intermittent Dose Schedule B, 160 mg, Day 1, 3 patients, read-out: AUC0–8 Geometric Mean (%CV)): 1.05 µg·h/mL | AUC(0-t) ([1]; 160 mg, Intermittent Dose Schedule B, 160 mg, Day 1, 3 patients, read-out: AUC0–24 Geometric Mean (%CV)): 3.7 µg·h/mL | Cmax ([1]; 160 mg, Intermittent Dose Schedule B, 160 mg, Day 1, 3 patients): 0.317 µg/mL | Tmax ([1]; 160 mg, Intermittent Dose Schedule B, 160 mg, Day 1, 3 patients, read-out: Tmax Median, (Range)): 12 h | AUC(0-t) ([1]; 160 mg, Intermittent Dose Schedule B, 160 mg, Day 8, 3 patients, read-out: AUC0–8 Geometric Mean (%CV)): 1.77 µg·h/mL | Cmax ([1]; 160 mg, Intermittent Dose Schedule B, 160 mg, Day 8, 3 patients): 0.325 µg/mL | Tmax ([1]; 160 mg, Intermittent Dose Schedule B, 160 mg, Day 8, 3 patients, read-out: Tmax Median, (Range)): 8 h | AUC(0-t) ([1]; 200 mg, Intermittent Dose Schedule A, 200 mg, Day 8, 4 patients, read-out: AUC0–8 Geometric Mean (%CV)): 4.46 µg·h/mL | Tmax ([1]; 200 mg, Intermittent Dose Schedule A, 200 mg, Day 8, 4 patients, read-out: Tmax Median, (Range)): 2 h | AUC(0-t) ([1]; 200 mg, Intermittent Dose Schedule A, 200 mg, Day 8, n = 2, read-out: AUC0–24 Geometric Mean (%CV)): 15.9 µg·h/mL | AUC(0-t) ([1]; 200 mg, Intermittent Dose Schedule A, 200 mg, Day -3, 4 patients, read-out: AUC0–8 Geometric Mean (%CV)): 3.48 µg·h/mL | AUC(0-t) ([1]; 200 mg, Intermittent Dose Schedule A, 200 mg, Day -3, 4 patients, read-out: AUC0–24 Geometric Mean (%CV)): 7.05 µg·h/mL | Cmax ([1]; 200 mg, Intermittent Dose Schedule A, 200 mg, Day -3, 4 patients): 1.03 µg/mL | Tmax ([1]; 200 mg, Intermittent Dose Schedule A, 200 mg, Day -3, 4 patients, read-out: Tmax Median, (Range)): 2 h | AUC(0-t) ([1]; 200 mg, Intermittent Dose Schedule B, 200 mg, Day 1, 4 patients, read-out: AUC0–8 Geometric Mean (%CV)): 3.19 µg·h/mL | AUC(0-t) ([1]; 200 mg, Intermittent Dose Schedule B, 200 mg, Day 1, 4 patients, read-out: AUC0–24 Geometric Mean (%CV)): 8.01 µg·h/mL | Cmax ([1]; 200 mg, Intermittent Dose Schedule B, 200 mg, Day 1, 4 patients): 0.734 µg/mL | Tmax ([1]; 200 mg, Intermittent Dose Schedule B, 200 mg, Day 1, 4 patients, read-out: Tmax Median, (Range)): 1.5 h | AUC(0-t) ([1]; 200 mg, Intermittent Dose Schedule B, 200 mg, Day 8, 4 patients, read-out: AUC0–8 Geometric Mean (%CV)): 5.8 µg·h/mL | Cmax ([1]; 200 mg, Intermittent Dose Schedule B, 200 mg, Day 8, 4 patients): 1.2 µg/mL | Tmax ([1]; 200 mg, Intermittent Dose Schedule B, 200 mg, Day 8, 4 patients, read-out: Tmax Median, (Range)): 1.5 h | AUC(0-t) ([1]; 200 mg, Intermittent Dose Schedule B, 200 mg, Day 8, n = 3, read-out: AUC0–24 Geometric Mean (%CV)): 14.7 µg·h/mL | Tmax ([1]; after the first dose, all three dosing schedules, range, 0.5–48 h, read-out: Median time to reach the peak plasma concentration (Tmax)): 2 h | Dose-exposure relationship ([1]; intermittent doses higher than 140 mg): less than linear dose-exposure relationship | Best Overall Response: Complete response (CR), Number of Patients (advanced solid tumors; All Schedules, n = 70): 0 n (%) | Best Overall Response: Missing (response could not be assessed), Number of Patients (advanced solid tumors; All Schedules, n = 70): 16 (22.9%) n (%) | Best Overall Response: Non-CR/Non-PD, Number of Patients (advanced solid tumors; All Schedules, n = 70): 4 (5.7%) n (%) | Best Overall Response: Partial response, Number of Patients (advanced solid tumors; All Schedules, n = 70): 1 (1.4%) n (%) | Best Overall Response: Progressive disease (PD), Number of Patients (advanced solid tumors; All Schedules, n = 70): 19 (27.1%) n (%) | Best Overall Response: Stable disease, Number of Patients (advanced solid tumors; All Schedules, n = 70): 30 (43%) n (%) | Best Overall Response: Complete response (CR), Number of Patients (advanced solid tumors; Continuous (n = 21)): 0 n (%) | Best Overall Response: Missing (response could not be assessed), Number of Patients (advanced solid tumors; Continuous (n = 21)): 9 (42.9%) n (%) | Best Overall Response: Non-CR/Non-PD, Number of Patients (advanced solid tumors; Continuous (n = 21)): 0 n (%) | Best Overall Response: Partial response, Number of Patients (advanced solid tumors; Continuous (n = 21)): 0 n (%) | Best Overall Response: Progressive disease (PD), Number of Patients (advanced solid tumors; Continuous (n = 21)): 7 (33.3%) n (%) | Best Overall Response: Stable disease, Number of Patients (advanced solid tumors; Continuous (n = 21)): 5 (23.8%) n (%) | Best Overall Response: Complete response (CR), Number of Patients (advanced solid tumors; Intermittent A, n = 25): 0 n (%) | Best Overall Response: Missing (response could not be assessed), Number of Patients (advanced solid tumors; Intermittent A, n = 25): 5 (20%) n (%) | Best Overall Response: Non-CR/Non-PD, Number of Patients (advanced solid tumors; Intermittent A, n = 25): 1 (4%) n (%) | Best Overall Response: Partial response, Number of Patients (advanced solid tumors; Intermittent A, n = 25): 1 (4%) n (%) | Best Overall Response: Progressive disease (PD), Number of Patients (advanced solid tumors; Intermittent A, n = 25): 6 (24%) n (%) | Best Overall Response: Stable disease, Number of Patients (advanced solid tumors; Intermittent A, n = 25): 12 (48%) n (%) | Best Overall Response: Complete response (CR), Number of Patients (advanced solid tumors; Intermittent B, n = 24): 0 n (%) | Best Overall Response: Missing (response could not be assessed), Number of Patients (advanced solid tumors; Intermittent B, n = 24): 2 (8.3%) n (%) | Best Overall Response: Non-CR/Non-PD, Number of Patients (advanced solid tumors; Intermittent B, n = 24): 3 (12.5%) n (%) | Best Overall Response: Partial response, Number of Patients (advanced solid tumors; Intermittent B, n = 24): 0 n (%) | Best Overall Response: Progressive disease (PD), Number of Patients (advanced solid tumors; Intermittent B, n = 24): 6 (25%) n (%) | Best Overall Response: Stable disease, Number of Patients (advanced solid tumors; Intermittent B, n = 24): 13 (54.2%) n (%) | Duration of response (advanced solid tumors; [2]): 8.4 months | Reduction in sum of target lesions per RECIST 1.1 (advanced solid tumors; [2]): 85% | Time to response (advanced solid tumors; [2]): 45 days | Patients with PR as best overall response (advanced solid tumors; all 70 patients): 1.4% | Complete response (CR) (advanced solid tumors; all patients): No patient achieved CR | Patients with SD (advanced solid tumors; all patients, 30 patients): 43.0% | Number of partial responses (advanced solid tumors; all patients, head and neck squamous cancer patient with NOTCH1T1997M mutation): one | Patients with SD (advanced solid tumors; continuous dosing): 23.8% | Best overall response of single patient (advanced solid tumors; head and neck squamous cancer, loss of function NOTCH1T1997M mutation, intermittent schedule A 200 mg): partial response | Patients with SD (advanced solid tumors; intermittent schedule A): 48.0% | Patients with SD (advanced solid tumors; intermittent schedule B): 54.2%

Reference: paper PMC10969742, “A Phase I Study of the Oral Dual-Acting Pan-PI3K/mTOR Inhibitor Bimiralisib in Patients with Advanced Solid Tumors” (Cancers, 2024)
